What all share (experiment): NCI tumour cell line growth inhibition, 48 h
Test [1] deals with HCT-15 colon.
The subject of test [2] is SF-268 CNS.
In test [3] the test system is RXF 393 renal.
Test [4] has as its system BT-549 breast.
In test [5] the test system is HS 578T breast.
In test [6] the test system is OVCAR-5 ovarian.
Test [7] has as its system SK-MEL-2 melanoma.
Test [8] relates to MDA-MB-435.

“And” between values parts separate entries of the source, which are not always exact repeats. Equal entries are not always repeated.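 96-well plates; 48 h exposure; 5 concentrations. Endpoints by linear interpolation between flanking doses. Not reached: highest tested concentration assigned. Abbreviation: GI50, concentration required for 50% inhibition of growth. TGI: total growth inhibition.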

`Cn1c2ccc3cc2c(=S)c2cc(ccc21)OCCOCCOCCOCCOCCOCCO3`: the TGI in test [1], in test [2], in test [3], in test [4], in test [5] and in test [6] was above 10 µM throughout. Moreover, in test [7], the TGI was above 10 µM.

Consider `Cc1cc(-c2nc3ccc(F)cc3s2)ccc1NC(=O)[C@H](C)N`, for which the TGI in test [8] stood at 5.82 µM; in test [1] it was 14.1 µM; in test [2], 22.8 µM; in test [3] it was 21.7 µM; in test [4] it was 26.8 µM; in test [5] it was 28.5 µM. In addition, the values for the TGI in test [6] and in test [7] were 21.7 µM and 25.2 µM, respectively.

With `Cc1ccccc1OC(C)C(=O)NN1C(=O)CSC1c1ccccc1` (centres undefined), the TGI in test [8], in test [1], in test [2], in test [3], in test [4] and in test [5] was above 100 µM throughout. Besides, the TGI in test [6] and in test [7] was above 100 µM throughout.

`Nc1c(-c2ccc(Cl)c(Cl)c2)c2ccc([N+](=O)[O-])cc2c(=O)n1-c1nc2ccccc2s1`: the TGI in test [8] is above 100 µM; in test [1] it was above 47 µM; in test [2], above 39.4 µM; in test [3], 16.8 µM; in test [4] it was 21.7 µM; in test [6] it was above 74.2 µM. For the same molecule, the TGI in test [7] amounted to 14.4 µM.

Take `C(=C(c1ccc(OC2CCCCO2)cc1)c1ccc(OC2CCCCO2)cc1)c1ccccc1` (centres undefined): the TGI came out at 1.7 µM in test [8]; 5.31 µM in test [2]; 2.25 µM in test [3]; 1.5 µM in test [4]; 4.44 µM in test [5]; 2.25 µM in test [6]. For the same molecule, the TGI in test [7] stood at 2.77 µM.

On to `Oc1ccccc1CNCc1nc2ccccc2[nH]1`, for which the TGI in test [8] was above 100 µM; in test [1] it was 12.3 µM; in test [2], above 100 µM; in test [3], above 100 µM; in test [4] it was above 100 µM; in test [5], above 100 µM. Further, the TGI in test [6] and in test [7] was above 100 µM each time.

In the case of `Cc1ccc(-c2cc(-c3ccco3)c(C#N)c(=S)n2C2OC(CO)C(O)C(O)C2O)cc1` (centres undefined), the TGI in test [8] is above 100 µM; in test [1], above 100 µM; in test [2], above 100 µM; in test [3], 45.4 µM and 45.3 µM; in test [4], 78.5 µM and > 100 µM; in test [5], above 100 µM. Further, the TGI in test [6] and in test [7] was above 100 µM throughout. The GI50 in test [2] is 44.8 µM; in test [4], 18.2 µM and 57.3 µM; in test [5] it was 14.8 µM and 33.2 µM; in test [7], 39.3 µM and > 100 µM.

`Cn1c(=O)c2c(nc3n2CC(C(=O)O)N3)n(C)c1=O` (centres undefined): the TGI in test [8], in test [1], in test [2], in test [3], in test [4] and in test [5] was above 100 µM each time. Besides, the TGI in test [6] and in test [7] was above 100 µM each time.

Turning to `C=C1CCN2CC[C@@H](OC(=O)/C(C)=C\C)[C@@H]12`, the TGI in test [8], in test [1], in test [2], in test [3], in test [5] and in test [6] was above 100 µM each time. In test [7], this molecule registered a TGI above 100 µM.

As for `COc1ccc(-n2c(C)nc3ccc(NC(=S)Nc4ccccc4)cc3c2=O)cc1`, the TGI in test [8], in test [1], in test [2], in test [3], in test [4] and in test [5] was above 100 µM throughout. Besides, the TGI in test [6] and in test [7] was above 100 µM each time.

On to `CC(=O)Nn1c(=S)[nH]c2ccccc21`, for which the TGI in test [8], in test [1], in test [2], in test [3], in test [4] and in test [5] was above 100 µM throughout. In addition, the TGI in test [6] and in test [7] was above 100 µM each time.

For the molecule `COc1cccc(Nc2nc(-c3cccs3)nc3cc(OC)c(OC)cc23)c1`, the TGI was 96.4 µM in test [8]; 49.3 µM in test [1]; above 100 µM in test [2]; 86 µM in test [4]; 75.3 µM in test [5]; above 100 µM in test [6]. Besides, the TGI in test [7] is above 100 µM.

For the molecule `CN(C)CCNS(=O)(=O)c1ccc(N)cc1`, the TGI in test [8], in test [1], in test [2], in test [3], in test [4] and in test [5] was above 100 µM in each case. Besides, the TGI in test [6] is above 100 µM; in test [7] it was 31.9 µM.

With `Oc1ccc(Cc2cc(Cc3ccc(O)cc3)cc(Cc3ccc(O)cc3)c2)cc1`, the TGI in test [8], in test [1], in test [2], in test [4], in test [5] and in test [6] was above 50 µM each time. In test [7], this molecule had a TGI above 50 µM.

For `O=C(c1ccccn1)C1(N2CCCCC2)CCCCC1`, the TGI in test [8] is above 100 µM; in test [1], above 100 µM; in test [2], 64.3 µM; in test [4], above 100 µM; in test [5], 39.5 µM; in test [6] it was above 100 µM. The molecule also came in with a TGI in test [7] above 100 µM.

Turning to `Nn1c(-c2ccccc2)n[nH]c1=O`, the TGI in test [8], in test [1], in test [2], in test [4], in test [5] and in test [6] was above 100 µM throughout. In test [7], the TGI was above 100 µM.

`O=C(Cc1ccc(O)c(O)c1)NCc1c[nH]c2ccccc12`: the TGI in test [1], in test [2], in test [3], in test [4], in test [5] and in test [6] was above 100 µM in each case. In test [7], the TGI was above 100 µM.

`Cc1cccc(Cn2c3c(c4cc(O)ccc42)C(=O)c2ccccc2C3=O)c1`: the TGI in test [8] was above 100 µM; in test [1], above 100 µM; in test [2] it was above 100 µM; in test [3], 21.2 µM; in test [4] it was above 86.7 µM; in test [5] it was above 100 µM. This molecule displayed a TGI in test [7] above 100 µM.

Regarding `Oc1ccc(-c2nc3ccc(Br)cc3s2)cc1`, the TGI in test [8] was 53.4 µM; in test [1], 67.5 µM; in test [2] it was 57.4 µM; in test [3], above 100 µM; in test [4], 44.7 µM; in test [6], 63.8 µM. The TGI in test [7] amounted to 33.3 µM.

For the molecule `CC(=O)N1C(C(=O)NC2CCCCC2)CSC1c1ccccc1` (centres undefined), the TGI in test [8], in test [1], in test [2], in test [4], in test [5] and in test [6] was above 100 µM throughout. The molecule further gave a TGI in test [7] above 100 µM.

In the case of `O=c1[nH]c(=S)[nH]c2c1C(c1ccc([N+](=O)[O-])cc1)c1c([nH]c(=S)[nH]c1=O)O2`, the TGI in test [8], in test [1], in test [3], in test [4], in test [5] and in test [6] was above 100 µM throughout. In test [7], this molecule had a TGI above 100 µM.

Consider `CCOP(=O)(OCC)C(F)(F)c1ccc(CC(NC(=O)OC(C)(C)C)C(=O)O)cc1` (centres undefined), for which the TGI in test [8], in test [1], in test [2], in test [4], in test [5] and in test [6] was above 10 µM each time.

For `O=C(OCc1ccccc1)N1CCNCCN(C(=O)OCc2ccccc2)CCNCC1`, the TGI in test [8] was 64.6 µM; in test [1], above 100 µM; in test [3] it was above 100 µM; in test [4], above 100 µM; in test [5], 54.5 µM; in test [6], above 100 µM. Also, in test [7], the TGI came out at 42.3 µM.

As to `CC1=Nc2ccccc2OC(C)=C1N=Nc1ccc2nc(C)[nH]c2c1`, the TGI in test [8], in test [1], in test [2], in test [3], in test [4] and in test [6] was above 100 µM each time. The same molecule came in with a TGI in test [7] above 100 µM.

As to `Oc1ccc2c(c1)c1c(n2CCN2CCOCC2)-c2ccccc2CC1`, the TGI in test [1] was 66.1 µM; in test [2], above 100 µM; in test [3], 75.7 µM; in test [4], above 100 µM; in test [5], 56.9 µM; in test [6] it was 60.5 µM. Besides, in test [7], the TGI was determined as 55.1 µM.

`CCN(CC)CCNC(=O)c1cc2cc(NC(=O)c3cc4cc([N+](=O)[O-])ccc4[nH]3)ccc2[nH]1`: the TGI in test [8], in test [1], in test [2], in test [3], in test [4] and in test [6] was above 100 µM throughout. Further, in test [7], the TGI is above 100 µM.

For the molecule `O=C(C1OC1c1ccc(Br)cc1O)C12CC3CC(CC(C3)C1)C2` (centres undefined), the TGI in test [8] was 30.4 µM; in test [1] it was 47 µM; in test [2], above 100 µM; in test [3], 72.4 µM; in test [5], 47.8 µM; in test [6] it was above 100 µM.

Take `O=[N+]([O-])c1ccc2[nH]nc(OCc3ccccc3Cl)c2c1`: the TGI in test [8] was above 100 µM; in test [1], above 100 µM; in test [2] it was above 100 µM; in test [3], 48.2 µM; in test [5], above 100 µM; in test [6], above 100 µM. In addition, the TGI in test [7] stood at 90.6 µM.

Regarding `COc1ccc(CN2C(=O)/C(=C\c3cc(OC)c(OC)c(OC)c3)c3ccccc32)cc1`, the GI50 is 2.09 µM in test [8]; 1.9 µM in test [1]; 2.65 µM in test [2]; 1.08 µM in test [4]; 3.78 µM in test [5]; 2.71 µM in test [6]. The GI50 in test [7] is 1.87 µM. For the same molecule, the TGI in test [8] was found to be 5.08 µM; in test [1], 3.86 µM; in test [2], 7.93 µM; in test [4], 7.53 µM; in test [5] it was 55.5 µM; in test [6], 6.48 µM. In addition, in test [7], the TGI is 4.11 µM.

As to `c1ccc2c3[nH]c(c2c1)=Nc1ccc(cc1)-c1nc2cc(ccc2o1)N=c1[nH]c(c2ccccc12)=Nc1ccc2nc(oc2c1)-c1ccc(cc1)N=3`, the TGI in test [8], in test [1], in test [2], in test [3], in test [4] and in test [5] was above 100 µM throughout. Also, the TGI in test [6] was above 100 µM.

In the case of `C#CCn1c(=O)c2ccccc2n(CC#C)c1=O`, the TGI in test [8], in test [1], in test [2], in test [3], in test [5] and in test [6] was above 10 µM in each case. Also, in test [7], the TGI was above 10 µM.

As for `COc1ncc(/C=C2\OC(=O)c3ccccc32)c(OC)n1`, the TGI in test [8] was above 100 µM; in test [1], above 100 µM; in test [2] it was above 100 µM; in test [3], above 100 µM; in test [4], 10.9 µM; in test [5], above 100 µM. The molecule further displayed a TGI in test [6] above 100 µM.

As to `COc1cc(S(=O)(=O)Nc2nc(-c3ccc(N4C(=O)C(CC(=O)O)SC4c4cccs4)cc3)cs2)ccc1Cl` (centres undefined), the TGI was above 100 µM in test [8]; 39.8 µM in test [1]; 50.9 µM in test [2]; 32.5 µM in test [3]; above 100 µM in test [5]; above 100 µM in test [6]. The TGI in test [7] is 69.7 µM.

On to `N[C@@H](CCC(=O)NCP(=O)(O)O)C(=O)O`, for which the TGI in test [8], in test [1], in test [4], in test [5], in test [6] and in test [7] was above 100 µM in each case.

For the origin of these results see PubChem BioAssay (NCI).
